Data from publication PMC4610306 (Journal of Medicinal Chemistry, 2015).
“Also recorded” adds a separate entry of the source.

Experiments:
U2OS cells = assay: Cell viability, colorimetric XTT assay; assay type: cell-based, human
PAD2 = PAD2 (Homo sapiens, UniProt Q9Y2J8); assay: Inactivation kinetics; assay type: biochemical
mouse neutrophils = assay: NET formation, PMA-stimulated neutrophils, DNA/neutrophil elastase overlap assay; assay type: cell-based; conditions: Cl-amidine as reference
[1] = Murine hepatic microsome stability assay; assay type: in vitro ADME, mouse

Chain of PAD2 (Q9Y2J8 whole entry): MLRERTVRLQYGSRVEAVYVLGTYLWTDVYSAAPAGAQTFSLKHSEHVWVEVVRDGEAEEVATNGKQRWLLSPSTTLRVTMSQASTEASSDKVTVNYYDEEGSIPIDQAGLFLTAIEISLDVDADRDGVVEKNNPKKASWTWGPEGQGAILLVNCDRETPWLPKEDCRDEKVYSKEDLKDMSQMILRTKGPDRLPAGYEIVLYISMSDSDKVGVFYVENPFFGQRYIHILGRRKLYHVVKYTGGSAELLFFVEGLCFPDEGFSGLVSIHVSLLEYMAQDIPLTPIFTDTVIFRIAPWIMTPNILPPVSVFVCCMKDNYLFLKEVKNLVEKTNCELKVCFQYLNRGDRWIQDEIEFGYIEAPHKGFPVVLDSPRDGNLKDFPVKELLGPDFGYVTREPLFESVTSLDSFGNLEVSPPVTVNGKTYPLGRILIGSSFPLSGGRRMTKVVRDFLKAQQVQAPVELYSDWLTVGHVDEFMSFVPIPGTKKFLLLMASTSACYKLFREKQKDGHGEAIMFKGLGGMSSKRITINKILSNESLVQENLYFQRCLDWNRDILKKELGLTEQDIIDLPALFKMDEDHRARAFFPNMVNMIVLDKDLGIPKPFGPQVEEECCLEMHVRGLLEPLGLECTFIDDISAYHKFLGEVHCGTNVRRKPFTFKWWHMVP

| Compound | EC50 improvement over parent compound Cl-amidine (U2OS cells) | kinact/KI (PAD2) | inhibition of NET formation (mouse neutrophils) | other results |
| --- | --- | --- | --- | --- |
| CC(C)(C)n1nnc([C@H](CCCNC(=N)CF)NC(=O)c2ccc(-c3ccccc3)cc2)n1 [Compound 14, biphenyl tetrazole tert-butyl-F-amidine] | 3.5 fold |  |  |  |
| CC(C)(C)n1nnc([C@H](CCCNC(=N)CF)NC(=O)c2ccccc2)n1 [Compound 7, tetrazole tert-butyl-F-amidine] |  | 108 M⁻¹ s⁻¹ |  |  |
| N=C(CF)NCCC[C@H](NC(=O)c1ccccc1)C(N)=O [F-amidine, reference compound] |  | 6.33 M⁻¹ s⁻¹ |  |  |
| CC(C)(C)n1nnc([C@H](CCCNC(=N)CCl)NC(=O)c2ccc(-c3ccccc3)cc2)n1 [Compound 13, biphenyl tetrazole tert-butyl Cl-amidine] | 16 fold |  | significantly more potent than Cl-amidine; also recorded: significantly reduces NET formation compared to Cl-amidine | effect on cell growth / cell viability (U2OS cells; 20 μM, 72 h, XTT): completely abolished cell growth; also recorded: completely abolishes the growth |
| CC(C)(C)n1nnc([C@H](CCCNC(=N)CCl)NC(=O)c2ccccc2)n1 [Compound 6, tetrazole tert-butyl Cl-amidine] |  | 125 M⁻¹ s⁻¹ |  |  |
| CC(C)(C)n1nnc([C@H](CCCNC(=N)CCl)NC(=O)c2ccccc2C(=O)O)n1 [Compound 21, o-carboxyl tetrazole tert-butyl Cl-amidine] |  |  | inhibits NET formation only at very high concentrations; also recorded: inhibits NET formation at higher doses | stability / half-life in mouse hepatic microsomes [1]: half-life mimics those obtained for the fluoro analogs |
